Columns and labels:
filaggrin (FLG) = assay: qRT-PCR of filaggrin in HaCaT cells; type: cell-based; conditions: 24 hours
Protocol: (§1) Specifically, HaCaT cells, which are skin stratum corneum cells, were treated with retinol and honokiol at 0.1 and 1 ppm, respectively, for 24 hours.
(§2) Subsequently, through qRT-PCR analysis, the mRNA expression of filaggrin (FLG), a moisturizing component-related factor present in keratinocytes constituting the skin barrier, and the CLDN1 gene, a factor related to the binding of the skin barrier, were measured and compared based on the β-actin expression level.

FBN = assay: qRT-PCR of fibronectin production factor in UVB-irradiated Hs68 cells; type: cell-based; conditions: Hs68, UVB 25 mJ/cm^2, 1 ppm, 24 hours; compared with RA, EGCG, retinol
Protocol: (§3) Specifically, Hs68 cells, which are skin dermal layer cells, were irradiated with UVB (ultraviolet-B) having a 25 mJ/cm^2 intensity, and then treated with RA, EGCG, retinol, and honokiol, 1 ppm each, for 24 hours.
(§4) The mRNA expression levels of ELN1, a factor associated with elastin production promotion, and FBN, a factor associated with fibronectin production promotion, were then measured using qRT-PCR analysis, and the levels of actin expression from the UVB non-irradiated group were converted and compared.

TSLP = assay: qRT-PCR of inflammation-related factor in Poly I:C/IL-4 stimulated HaCaT cells; type: cell-based; conditions: 10 µg/ml Poly I:C and 10 µg/ml IL-4, 1 ppm, 4 hours
Protocol: Specifically, HaCaT cells, which are skin stratum corneum cells, were treated (+) with 10 µg/ml of Poly I:C and 10 µg/ml of IL-4 protein, which are inflammatory response inducing substances, and prepared as an experimental group in which 1 µM (Dexa) of dexamethasone (DEXA), retinol, and honokiol, which are […], were treated for 4 hours at 0.1 and 1 ppm, respectively. The untreated group (-) was prepared as a negative control.
Afterwards, the expression level of the TSLP gene, an inflammation-related factor expressed in skin keratinocytes, was measured through qRT-PCR analysis, converted based on the expression level of ectin, and compared.

Hs68 cells = assay: MTT cytotoxicity evaluation on skin dermis cells; type: cell-based; conditions: Hs68 (skin dermis cells), 0.1, 0.5, 1 and 5 ppm, 24 hours, at concentrations of 5 ppm or less
Protocol: (§5) Toxicity assessments of honokiol on skin epidermis and dermal cells were performed. Specifically, HaCaT cells, which are skin keratinocytes, and Hs68 cells, which are skin dermis cells, were cultured in a 96 well plate at a concentration of 2 X […] and cultured in a medium including FBS ([…]) and antibiotics (Antibiotic antibiotic) at 37°C and 5% CO2 for 24 hours, and then further cultured by treating the medium including only antibiotics with 0.1, 0.5, 1, and 5 ppm for each concentration on the next day. After 24 hours, the toxic concentration of the honokiol material on skin cells was determined by replacing it with medium containing MTT tetrazolum (Sigma-aldrich, St. Lous, USA) and by reacting at 37°C for 4 hours to evaluate the cellular metabolic activity.

HaCaT cells = assay: MTT cytotoxicity evaluation on skin keratinocytes; type: cell-based; conditions: HaCaT (skin stratum corneum cells), 0.1, 0.5, 1 and 5 ppm, 24 hours, at concentrations of 5 ppm or less
Protocol: as §5

HAS3 = assay: qRT-PCR of hyaluronic acid synthase factor in HaCaT cells; type: cell-based; conditions: 24 hours
Protocol: as §1
(§6) The mRNA expression levels of the AQP3 gene, which is a factor related to the migration of moisture present in the dermis, and the HAS3 gene, which is a factor related to hyaluronic acid synthase, were then measured through qRT-PCR analysis, and the β-actin expression levels were converted and compared.

MMP-1 = assay: qRT-PCR of collagen degradation enzyme factor in UVB-irradiated Hs68 cells; type: cell-based; conditions: Hs68, UVB 25 mJ/cm^2, 1 ppm, 24 hours; relative to UVB non-irradiated group
Protocol: It was determined whether honokiol increases the amount of skin collagen. Specifically, Hs68 cells, which are skin dermal layer cells, were irradiated with 25 mJ/cm^2 intensity of UVB (ultraviolet B), and then treated with RA (retinoic acid), EGCG (epigallocatechin gallate), retinol, and honokiol at a concentration of 1 ppm for 24 hours, respectively.
The mRNA expression of the collagen production promotion factor COL1A1 and the collagen degradation enzyme factor MMP-1 gene was measured through qRT-PCR analysis and converted based on the actin expression, and the relative values for the expression of the UVB non-irradiated group were calculated and compared.
The collagen production amount was compared in the same manner as in Example 2-1, and the treatment sample was changed to a honokiol solution dissolved in RA (retinoic acid), retinol, DMSO (dimethyl sulfoxide), a honokiol solution dissolved in BG, and a honokiol solution dissolved in PG (propylene glycol).
In Example 2-1, a 5% (w/w) solution was prepared as a sample to confirm stability in a high concentration dissolved state, whereas a honokiol solution for treating cells was prepared at a concentration of 1 mg/ml, and the honokiol alone component treated in cells was performed to be 1 ppm.

COL1A1 = assay: qRT-PCR of collagen production promotion factor in UVB-irradiated Hs68 cells; type: cell-based; conditions: Hs68, UVB 25 mJ/cm^2, 1 ppm, 24 hours; relative to UVB non-irradiated group; compared with RA, EGCG, retinol
[1] = Solvent selection: dissolving 5 wt % honokiol in water, BG, MCT; type: physicochemical
Text: Honokiol is a poorly soluble component and has low solubility in water, so it has the property of being dissolved in an organic solvent. To stabilize the cosmetic composition including honokiol at a high concentration of 5 wt %, three types of solvents corresponding to water, Butylene Glycol (BG), and medium-chain triglyceride (MCT) oil were applied to confirm the result.

ELN1 = assay: qRT-PCR of elastin production factor in UVB-irradiated Hs68 cells; type: cell-based; conditions: Hs68, UVB 25 mJ/cm^2, 1 ppm, 24 hours; compared with RA, EGCG, retinol
Protocol: as §3, §4

[2] = DPPH test of antioxidant activity; type: biochemical; conditions: 10 and 100 ppm, room temperature, 30 minutes; compared to retinol
Protocol: It was confirmed by the DPPH test whether honokiol exerts antioxidant activity.
Specifically, the DPPH solution was treated with Ascorbic Acid (AA), retinol, and honokiol at 10 and 100 ppm, respectively, at room temperature for 30 minutes. The absorbance was measured at 517 nm to show antioxidant activity as the ratio of the decrease in absorbance to the control. At this time, ascorbic acid, an antioxidant, was used as a control group for determining the absorbance reduction ratio.

[3] = HPLC potency analysis after storage; type: physicochemical; conditions: harsh environments of low temperature, high temperature, and cycle
Protocol: Honokiol was dissolved in BG and MCT at a concentration of 5 wt %, and high-performance liquid chromatography (HPLC) was performed to observe whether precipitates were formed at 4°C, 25°C, 45°C, 50°C, and sunlight, and to analyze potency.

AQP3 = assay: qRT-PCR of moisture migration factor in HaCaT cells; type: cell-based; conditions: 24 hours
Protocol: as §1, §6

CLDN1 = assay: qRT-PCR of skin barrier binding factor in HaCaT cells; type: cell-based; conditions: 1 ppm, 24 hours, versus control group
Protocol: as §1, §2

[4] = 0.1 and 1 ppm, overall versus retinol

solubility ([1]; 5 wt % honokiol in BG): well soluble
solubility ([1]; 5 wt % honokiol in MCT): well soluble
solubility ([1]; 5 wt % honokiol in water): low
potency maintenance (stability of the material) [3]: maintained its potency well
Compound: C=CCc1ccc(O)c(-c2ccc(O)c(CC=C)c2)c1 [honokiol]
FLG mRNA expression (filaggrin (FLG); [4]): higher expression than the retinol-treated group overall
FLG mRNA expression (filaggrin (FLG); 1 ppm): significantly increased the expression of the FLG gene
FBN mRNA expression level (FBN): highest expression level among the UV-irradiated groups but also showed a higher expression level than the UV-unirradiated group
TSLP gene expression amount (TSLP): significantly reducing the expression amount of the TSLP gene
cytotoxicity (Hs68 cells): did not cause cytotoxicity
cytotoxicity (HaCaT cells): did not cause cytotoxicity
HAS3 mRNA expression level (HAS3; [4]): higher overall expression than the retinol-treated group
HAS3 mRNA expression level (HAS3; 1 ppm): significantly increased the expression of related genes
MMP-1 mRNA expression (collagen degrading enzyme production) (MMP-1): lower amount of collagen degrading enzyme production than the UVB-only irradiation group
COL1A1 mRNA expression (collagen production) (COL1A1): higher collagen production than the UVB-only irradiated group, and showed the highest collagen production among all UVB irradiated groups
ELN1 mRNA expression level (ELN1): highest expression level among the UV-irradiated groups but also showed a higher expression level than the UV-unirradiated group
antioxidant activity (DPPH, decrease in absorbance at 517 nm) [2]: remarkably high antioxidant activity compared to retinol
AQP3 mRNA expression level (AQP3; [4]): higher overall expression than the retinol-treated group
AQP3 mRNA expression level (AQP3; 1 ppm): significantly increased the expression of related genes
CLDN1 mRNA expression level (CLDN1): significantly increased the expression level of the CLDN1 gene compared to that of the control group
